Our source for the Kd and IC50 values is patent publication US12441707B2, “Indazole compounds” (TYRA BIOSCIENCES, INC., priority 2019, dated 2025).

Where two headings read alike, the source gives them in different places.

Assay [1] concerns the target T1, FGFR2 (Homo sapiens (Human), UniProt P21802). Description: biochemical.
Procedure: (§3) Kinase-tagged T7 phage strains were prepared in an E. coli host derived from the BL21 strain. E. coli were grown to log-phase and infected with T7 phage and incubated with shaking at 32° C. until lysis. The lysates were centrifuged and filtered to remove cell debris. […] The liganded beads were blocked with excess biotin and washed with blocking buffer SeaBlock (Pierce), 1% BSA, 0.05% Tween 20, 1 mM DTT to remove unbound ligand and to reduce non-specific binding.
(§4) Test compounds were prepared as 111× stocks in 100% DMSO. Kds were determined using an 11-point 3-fold compound dilution series with three DMSO control points. […] The compounds were then diluted directly into the assays such that the final concentration of DMSO was 0.9%. All reactions performed in polypropylene 384-well plate. Each was a final volume of 0.02 ml. […] The kinase concentration in the eluates was measured by qPCR.
(§5) Binding constants were calculated with a standard dose-response curve using the Hill equation:
(§6) The Hill Slope was set to −1. Curves were fitted using a non-linear least square fit with the Levenberg-Marquardt algorithm.
The target in a further assay is FGFR3 (Homo sapiens (Human), UniProt P22607). Description: Kinase binding assay (kinase-tagged T7 phage, liganded affinity beads, qPCR). To be noted: binding constant; 0.9% DMSO. (In general: In qPCR the cycle at which signal appears reflects the starting amount.)
The target in a further assay is FGFR1 (Homo sapiens (Human), UniProt P11362). Described as above. Conditions: binding constant; 0.9% DMSO.
Assay [2] concerns the target T1, FGFR2.
Procedure: as §3, §4, §5, §6
Assay [3] concerns KG-1 cells (Acute Myeloid Leukemia, FGFR1OP2-FGFR1 fusion). Description: KG-1 cancer cell line cell viability assay (CellTiter-Glo 2.0). It is filed as cell-based. To be noted: Homo sapiens, 72 hours. The text has this: (§1) Experimental Purpose: To detect the change of intracellular ATP by Cell Titer-Glo® and to evaluate the inhibitory effect of the compounds on cancer cell lines by determining the in vitro IC50 value of the compounds.
(§2) RT112/84 and KG-1 cell lines were purchased from American Type Culture Collection (Manassas, VA). UM-UC-14 cell line was purchased from Sigma (St. Louis, MO).
In general terms: ATP-based viability assays read luminescence as a measure of living cells.

The subject of assay [4] is RT112/84 cells (Bladder Cancer, FGFR3-TACC3 fusion). Description: RT112/84 cell viability assay (CellTiter-Glo 2.0). It is filed as cell-based. To be noted: Homo sapiens, 72 hours.
Source text: Example B. RT112/84 Cell Viability Assay
RT112/84 cell line was purchased from American Type Culture Collection (Manassas, VA).
as §1, §2

The subject of assay [5] is UM-UC-14 cells (Bladder Cancer, FGFR3(S249C)). The assay can be described thus: UM-UC-14 cancer cell line cell viability assay (CellTiter-Glo 2.0). It is filed as cell-based. To be noted: UMUC14, 72 hours.
Source text: as §1, §2

The target in assay [6] is FGFR3-BAIAP2L1 Ba/F3 cells.
Sequence of FGFR3-BAIAP2L1 Ba/F3 cells (P22607 23-806 limits assumed, change not shown): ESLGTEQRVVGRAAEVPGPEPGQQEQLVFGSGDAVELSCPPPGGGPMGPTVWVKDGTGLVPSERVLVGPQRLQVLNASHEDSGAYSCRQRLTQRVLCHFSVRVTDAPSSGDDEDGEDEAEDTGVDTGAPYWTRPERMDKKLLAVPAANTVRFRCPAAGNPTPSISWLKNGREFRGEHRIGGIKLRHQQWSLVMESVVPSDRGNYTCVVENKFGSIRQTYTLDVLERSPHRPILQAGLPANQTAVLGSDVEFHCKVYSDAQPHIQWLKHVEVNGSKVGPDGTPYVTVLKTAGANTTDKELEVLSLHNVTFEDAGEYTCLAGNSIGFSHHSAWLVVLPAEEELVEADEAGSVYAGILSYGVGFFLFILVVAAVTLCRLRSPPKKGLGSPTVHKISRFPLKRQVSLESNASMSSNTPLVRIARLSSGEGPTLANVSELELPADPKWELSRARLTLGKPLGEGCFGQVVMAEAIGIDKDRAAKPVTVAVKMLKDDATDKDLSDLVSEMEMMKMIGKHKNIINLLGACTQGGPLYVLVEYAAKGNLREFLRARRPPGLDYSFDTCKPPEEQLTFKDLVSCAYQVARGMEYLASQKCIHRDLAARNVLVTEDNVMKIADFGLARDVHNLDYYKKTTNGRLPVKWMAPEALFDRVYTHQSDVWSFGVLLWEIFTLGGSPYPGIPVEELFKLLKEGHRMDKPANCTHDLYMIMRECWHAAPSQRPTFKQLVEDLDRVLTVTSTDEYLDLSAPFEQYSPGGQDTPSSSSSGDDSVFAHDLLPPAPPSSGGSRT
Procedure: Ba/F3 Cell Viability Assays Experimental Purpose: Recombinant kinase fusions are transduced into parental Ba/F3, which becomes dependent upon this constitutive kinase activity for IL3-independent survival. Inhibition of kinase activity leads to cell death, which is monitored using CellTiter-Glo® 2.0 (Promega) which measures intracellular ATP concentration that in turn serves as a marker for viability. […] Cultures were maintained at 37° C. in a humidified atmosphere of 5% CO2 and 95% air. Cells were plated in 96-well clear bottom/white plates (Corning #3903) at 10,000 cells/well in 100 μl of media, incubated overnight. The next day, test compound DMSO stock solutions were made at 10 mM and 2 μM final concentration. Compounds were then added to cells in a 9-dose, 10-fold dilution series starting at 30 μM with an HP 300e Digital Dispenser (each dose was applied in triplicate). DMSO was backfilled to each well up to 301 nL total volume of test compound+DMSO, and a total of 301 nL DMSO was added to a control/no test compound well in triplicate. […] Luminescence was recorded by a Synergy H1 Microplate Reader (Biotek, Winooski, VT). Cells were assessed as a percentage of DMSO only treated control cells. Curves were plotted and IC50 values were calculated using the GraphPad Prism 8 program based on a sigmoidal dose-response equation (4 parameter).

T1 sequence (P21802 22-821): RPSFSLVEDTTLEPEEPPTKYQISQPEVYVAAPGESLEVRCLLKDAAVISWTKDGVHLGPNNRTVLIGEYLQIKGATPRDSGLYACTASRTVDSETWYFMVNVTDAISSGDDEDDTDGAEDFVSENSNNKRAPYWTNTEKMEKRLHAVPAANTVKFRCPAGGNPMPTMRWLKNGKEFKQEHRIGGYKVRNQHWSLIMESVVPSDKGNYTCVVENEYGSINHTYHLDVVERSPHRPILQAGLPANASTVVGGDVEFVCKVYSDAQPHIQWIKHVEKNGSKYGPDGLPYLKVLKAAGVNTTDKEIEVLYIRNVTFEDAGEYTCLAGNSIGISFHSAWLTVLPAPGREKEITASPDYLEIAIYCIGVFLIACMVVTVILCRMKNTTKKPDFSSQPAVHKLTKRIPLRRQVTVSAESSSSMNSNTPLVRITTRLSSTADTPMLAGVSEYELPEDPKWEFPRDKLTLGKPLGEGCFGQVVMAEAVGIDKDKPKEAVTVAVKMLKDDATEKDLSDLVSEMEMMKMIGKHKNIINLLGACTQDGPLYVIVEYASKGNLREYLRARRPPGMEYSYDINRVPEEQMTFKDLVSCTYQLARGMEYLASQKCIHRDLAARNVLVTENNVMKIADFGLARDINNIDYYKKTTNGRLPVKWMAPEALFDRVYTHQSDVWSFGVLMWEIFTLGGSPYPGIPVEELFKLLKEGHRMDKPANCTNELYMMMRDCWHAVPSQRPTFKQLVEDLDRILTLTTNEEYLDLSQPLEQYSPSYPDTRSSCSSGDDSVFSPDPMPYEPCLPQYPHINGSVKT
Sequence of FGFR1 (P11362 22-822): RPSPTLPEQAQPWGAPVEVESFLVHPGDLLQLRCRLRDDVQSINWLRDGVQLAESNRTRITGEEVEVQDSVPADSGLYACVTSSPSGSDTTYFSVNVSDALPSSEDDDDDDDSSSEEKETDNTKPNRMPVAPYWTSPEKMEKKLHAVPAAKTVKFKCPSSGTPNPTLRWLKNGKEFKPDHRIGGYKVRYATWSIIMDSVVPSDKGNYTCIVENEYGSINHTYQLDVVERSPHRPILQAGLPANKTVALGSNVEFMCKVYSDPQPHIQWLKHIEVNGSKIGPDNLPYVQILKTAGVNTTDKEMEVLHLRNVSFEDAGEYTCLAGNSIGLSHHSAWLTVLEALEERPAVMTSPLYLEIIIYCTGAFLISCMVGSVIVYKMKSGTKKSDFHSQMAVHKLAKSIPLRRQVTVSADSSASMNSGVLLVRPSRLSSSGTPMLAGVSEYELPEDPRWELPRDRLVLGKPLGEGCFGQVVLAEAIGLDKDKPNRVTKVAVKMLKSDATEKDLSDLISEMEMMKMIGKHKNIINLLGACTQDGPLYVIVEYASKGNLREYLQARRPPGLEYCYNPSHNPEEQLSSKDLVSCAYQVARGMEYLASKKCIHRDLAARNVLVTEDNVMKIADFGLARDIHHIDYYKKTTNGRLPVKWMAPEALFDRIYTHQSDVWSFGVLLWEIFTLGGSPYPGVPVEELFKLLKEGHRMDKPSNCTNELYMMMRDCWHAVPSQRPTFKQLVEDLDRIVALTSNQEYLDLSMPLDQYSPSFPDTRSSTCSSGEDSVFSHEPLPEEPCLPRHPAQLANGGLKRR
Sequence of FGFR3 (P22607 23-806): as the sequence (P22607 23-806 limits assumed, change not shown) above

A word on the Kd: it is the free concentration of one partner at which half of the binding sites on the other are occupied at equilibrium, for simple one-to-one binding. Read a high Kd as lower affinity. Consider `CC(Oc1ccc2[nH]nc(-c3cccc(N=S(C)(C)=O)c3)c2c1)c1c(Cl)cncc1Cl` (stereo not shown) [Example 1, [3-[5-[1-(3,5-dichloro-4-pyridyl)ethoxy]-1H-indazol-3-yl]phenyl]imino-dimethyl-oxo-λ^6-sulfane], for which the results for the Kd on FGFR2 [1], at FGFR3 and on FGFR1 were 550 nM, 76 nM and 770 nM, respectively.
Take `CC(Oc1ccc2[nH]nc(-c3cccc(S(C)(=N)=O)c3)c2c1)c1c(Cl)cncc1Cl` (stereo not shown) [Example 2, (3-(5-(1-(3,5-Dichloropyridin-4-yl)ethoxy)-1H-indazol-3-yl)phenyl)(imino) (methyl)-λ^6-6-sulfanone]: the figures for the Kd at FGFR3, at FGFR1 and on FGFR2 [2] were 120 nM, 1200 nM and 400 nM, respectively.
By IC50 is commonly meant the concentration that gives 50% inhibition. Low readings indicate greater potency in that assay, high ones weaker potency in that assay. Take `C[C@@H](Oc1ccc2[nH]nc(/C=C/c3ccc(N=S(C)(C)=O)nc3)c2c1)c1c(Cl)cncc1Cl` [Example 3]: the values for the IC50 in assay [3] and in assay [4] were 0.4 nM and 20 nM, respectively.
For `CC(Oc1ccc2[nH]nc(C(=O)Nc3ccc(S(C)(=N)=O)nc3)c2c1)c1c(Cl)cncc1Cl` (stereo not shown) [Example 6, 5-(1-(3,5-Dichloropyridin-4-yl)ethoxy)-N-(6-(S-methylsulfonimidoyl)pyridine-3-yl)-1H-indazole-3-carboxamide], the Kd at FGFR3 came out at 47 nM; on FGFR1, 260 nM; on FGFR2 [2], 120 nM.
As for `C[C@@H](Oc1ccc2[nH]nc(-c3ccc(N4CCS(=N)(=O)CC4)nc3)c2c1)c1c(Cl)cncc1Cl` [Example 12, (R)-4-(5-(5-(1-(3,5-Dichloropyridin-4-yl)ethoxy)-1H-indazol-3-yl)pyridin-2-yl)-1-imino-1λ^6-thiomorpholine 1-oxide], the IC50 in assay [3] is 45 nM; in assay [5] it was 5.9 nM; in assay [4] it was 4.3 nM.
`C[C@@H](Oc1ccc2[nH]nc(-c3ccc(N4CCS(=N)(=O)CC4)cc3)c2c1)c1c(Cl)cncc1Cl` [Example 13, (R)-4-(4-(5-(1-(3,5-Dichloropyridin-4-yl)ethoxy)-1H-indazol-3-yl)phenyl)-1-imino-1λ^6-thiomorpholine 1-oxide] returned an IC50 in assay [4] of 16 nM.
Same read-out and setting: with `C[C@H](Oc1ccc2[nH]nc(-c3ccc(N4CCS(=N)(=O)CC4)cc3)c2c1)c1c(Cl)cncc1Cl` [Example 14, (S)-4-(4-(5-(1-(3,5-Dichloropyridin-4-yl)ethoxy)-1H-indazol-3-yl)phenyl)-1-imino-1λ^6-thiomorpholine 1-oxide] the figure was 75 nM.
For `C[C@@H](Oc1ccc2[nH]nc(NC(=O)c3ccc(N=S(C)(C)=O)nc3)c2c1)c1c(Cl)cncc1Cl` [Example 19, (R)—N-(5-(1-(3,5-Dichloropyridin-4-yl)ethoxy)-1H-indazol-3-yl)-6-((dimethyl(oxo)-λ^6-sulfaneylidene)amino)nicotinamide], in assay [4], inhibition was half-maximal at 39 nM (IC50).
As for `C[C@@H](Oc1ccc2[nH]nc(-c3ccc(N=S(C)(C)=O)nc3)c2c1)c1c(Cl)cncc1Cl` [Example 21, (R)-((5-(5-(1-(3,5-Dichloropyridin-4-yl)ethoxy)-1H-indazol-3-yl)pyridin-2-yl)imino)dimethyl-λ^6-sulfanone], the half-inhibitory concentration (IC50) worked out at 103 nM in assay [3], 19 nM in assay [5] and 11 nM in assay [4].
Take `CN=S1(=O)CCN(c2ccc(-c3n[nH]c4ccc(O[C@H](C)c5c(Cl)cncc5Cl)cc34)cn2)CC1` [Example 24, 4-[5-[5-[(1R)-1-(3,5-dichloro-4-pyridyl)ethoxy]-1H-indazol-3-yl]-2-pyridyl]-1-methylimino-1,4-thiazinane 1-oxide]: the results for the IC50 in assay [3], in assay [5] and in assay [4] were 169 nM, 12 nM and 8.4 nM, respectively.
Take `C[C@@H](Oc1ccc2[nH]nc(-c3cnc(N=S(C)(C)=O)c(F)c3)c2c1)c1c(Cl)cncc1Cl` [Example 25, [5-[5-[(1R)-1-(3,5-dichloro-4-pyridyl)ethoxy]-1H-indazol-3-yl]-3-fluoro-2-pyridyl]imino-dimethyl-oxo-λ^6-sulfane]: the IC50 in assay [3] was 81 nM; in assay [5], 19 nM; in assay [4], 14 nM.
In the case of `C[C@@H](Oc1ccc2[nH]nc(-c3cnc(N=S(C)(C)=O)nc3)c2c1)c1c(Cl)cncc1Cl` [Example 26, [5-[5-[(1R)-1-(3,5-dichloro-4-pyridyl)ethoxy]-1H-indazol-3-yl]pyrimidin-2-yl]imino-dimethyl-oxo-λ^6-sulfane], the IC50 stood at 123 nM in assay [3], 29 nM in assay [5], 22 nM in assay [4] and 18 nM in assay [6].
Take `C[C@@H](Oc1ccc2[nH]nc(-c3ccc(S(C)(=N)=O)nc3)c2c1)c1c(Cl)cncc1Cl` (stereo partly drawn) [Example 28, [5-[5-[(1R)-1-(3,5-dichloro-4-pyridyl)ethoxy]-1H-indazol-3-yl]-2-pyridyl]-imino-methyl-oxo-λ^6-sulfane]: the IC50 was found to be 44 nM in assay [5] and 28 nM in assay [4].
For the compound `Cc1ncc(Cl)c([C@@H](C)Oc2ccc3[nH]nc(-c4ccc(N=S(C)(C)=O)nc4)c3c2)c1Cl` [Example 30, [5-[5-[(1R)-1-(3,5-dichloro-2-methyl-4-pyridyl)ethoxy]-1H-indazol-3-yl]-2-pyridyl]imino-dimethyl-oxo-λ^6-sulfane], the figures for the IC50 in assay [5] and in assay [4] were 47 nM and 38 nM, respectively.
As to `C[C@@H](Oc1ccc2[nH]nc(-c3ccc(N=S4(=O)CCCC4)nc3)c2c1)c1c(Cl)cncc1Cl` [Example 32, 1-[[5-[5-[(1R)-1-(3,5-Dichloro-4-pyridyl)ethoxy]-1H-indazol-3-yl]-2-pyridyl]imino]thiolane 1-oxide], the Kd amounted to 15 nM on FGFR2 [1], 1.9 nM on FGFR3 and 14 nM on FGFR1.
